Test results published in article PMC5037830 (2016).

Key:
[1] = tested on: dsDNA (ds-oligonucleotide, oligonucleotides 1 and 2) (DNA, duplex) AAATTAATATGTATTGTATATAAATTATT/AATAATTTATATACAATACATATTAATTT; assay: UV melting (260 nm); settings: 0.1 M NaCl, 0.01 M MgCl2
[2] = tested on: dsDNA (ds-oligonucleotide, oligonucleotides 1 and 2) (DNA, duplex) AAATTAATATGTATTGTATATAAATTATT/AATAATTTATATACAATACATATTAATTT; assay: circular dichroism; settings: Na+ (TBS); TBS pH 7.4, 1 mM EDTA, 37 °C; 2.5 µM compound, 2.5 µM duplex

SMILES: CN(CCCNC(=O)c1cnc2ccccc2c1N)CCCNC(=O)c1cnc2ccccc2c1N
- ΔTm ([1]; derived from two Tm (64.5 ± 0.71, control 64.97 ± 0.20), 15 µM, change called negligible): -0.47 °C

SMILES: CN(CCCNC=C1C(=O)Oc2ccccc2C1=O)CCCNC=C1C(=O)Oc2ccccc2C1=O
- ΔTm ([1]; derived from two Tm (64.07 ± 0.14, control 64.97 ± 0.20), 15 µM, change called negligible): -0.90 °C

SMILES: Nc1c(C(=O)NCCCN2CCN(CCCNC(=O)c3cnc4ccccc4c3N)CC2)cnc2ccccc12
- ΔTm ([1]; derived from two Tm (70.7 ± 0.71, control 64.97 ± 0.20), text says 7, 15 µM, 0.1% DMSO): 5.73 °C
- binding [2]: yes

SMILES: Nc1c2ccccc2nc2ccccc12
- ΔTm ([1]; derived from two Tm (78.00 ± 0.00, control 64.97 ± 0.20), 100 µM): 13.03 °C

SMILES: O=C1Oc2ccccc2C(=O)C1=CNCCCN1CCN(CCCNC=C2C(=O)Oc3ccccc3C2=O)CC1
- ΔTm ([1]; derived from two Tm (64.02 ± 0.00, control 64.97 ± 0.20), 15 µM, change called negligible): -0.95 °C
